Measurements taken from patent US8658683B2, “Combination of alpha-2 receptor agonist (clonidin) and anti-muscarinic agent (oxybutynin) for the treatment of sialorrhoea” (Orient Pharma (Samoa) Co., Ltd, priority 2006, dated 2014).

Key:
[1] = tested on: patients with Parkinson's disease; conditions: ophthalmic solution given sublingually, cited from earlier work
[2] = tested on: Parkinson's patients; conditions: 0.15 mg per os, 17 Parkinson's patients; cited from earlier work
[3] = tested on: sialorrhoea induced by clozapine; conditions: in vivo; cited from earlier work
[4] = tested on: healthy male volunteers; assay: Saxon test of saliva production, open-label rising dose study; format: in vivo, human; conditions: for saliva production over time: drug administered alone, pre-dose to 6 h post-dose; for effect of dose on saliva production: drug alone, rising dose levels
Method: The study examined the effects of clonidine and oxybutynin on saliva production in 9 healthy male volunteers. This was an open-label, non-randomised, two-period, rising dose study.
The subjects were assessed on each dosing occasion for saliva production pre-dose and 1 h, 2.5 h, 4 h and 6 h post-dose. Vital signs were recorded at specified times during each study period and adverse events were reported throughout.
Using this information, a mixed effects regression analysis of the % reduction in saliva versus dose with subject as a random effect was performed for both clonidine and oxybutynin. From this model, an approximate ED30 and an ED50 were calculated.
The key observation in this study is based on the Saxon test. See Kohler & Winter, Arthritis Rheum.

[5] = tested on: patients; conditions: tablets; cited from earlier work
[6] = tested on: patients receiving clozapine with excessive drooling; conditions: nasal spray 0.03-0.06% sublingually, 8 patients, after several weeks of use; cited from earlier work

In the case of `CN1[C@@H]2CC[C@H]1C[C@@H](OC(=O)C(CO)c1ccccc1)C2` (stereo partly shown) [atropine], the “patients who suffered hallucinations” value ([1]; 7 patients) is given as 2 of the 7 and the saliva production ([1]; small case study) is given as “significant decline in saliva production”.

In the case of `Clc1cccc(Cl)c1N=C1NCCN1` [clonidine], the “patients who experienced side-effects” value [2] is listed as “Four of the 17”, the reduction of sialorrhoea [2] is listed as “significantly reduce sialorrhoea” and the “reduction of sialorrhoea induced by clozapine” value [3] is listed as “effective in reducing sialorrhoea”. For the same compound, the “AUCT of saliva production compared to placebo” value (“AUCT … compared to placebo” for short) ([4]; 50 mcg clonidine) was “reduction in AUCTs”, the “AUCT … compared to placebo” value ([4]; 100 mcg clonidine) was “reduction in AUCTs” and the “saliva production over time” value [4] was “trend towards a reduction in saliva production over time”. The “effect of dose on saliva production” value [4] was “significant with increasing dose levels”.

In the case of `C[N+]1(C)CCC(OC(=O)C(O)(c2ccccc2)C2CCCC2)C1` (stereo not shown) [glycopyrrolate], the “patients by whom the drug is not well tolerated” value [5] is listed as 20-25 % of patients.

In the case of `CC(C)[N+]1(C)[C@@H]2CC[C@H]1C[C@@H](OC(=O)C(CO)c1ccccc1)C2` (stereo partly shown) [ipratropium], the non-responder patients [6] is given as 1 patient, the “patients with full response” value [6] is given as 2 patients and the “patients with partial response (symptoms controlled for 2-8 hours)” value [6] is given as 5 patients.

For `CCN(CC)CC#CCOC(=O)C(O)(c1ccccc1)C1CCCCC1` (stereo not shown) [oxybutynin], the “AUCT … compared to placebo” value ([4]; 10 mg oxybutynin) was “AUCT was reduced”, the “saliva production over time” value [4] was “trend towards a reduction in saliva production over time” and the “effect of dose on saliva production” value [4] was “no significant effects of dose on saliva production”.
